# Laboratory results as given in patent publication US11466010B2, “Toll-like receptor 8 (TLR8) specific antagonists and methods of making and uses thereof” (The Regents of the University of Colorado, a body corporate, priority 2017, dated 2022).
# System: TLR8 downstream proteins (p65, p-IRAK4, TRAF3, TRIF, IRF3)
# Experiment: Immunoblotting of TLR downstream signaling proteins in THP-1 cells treated with R848
# Format: cell-based, human
# Method: Immunoblotting: THP-1 cells were seeded in 6-well plates with a density of 2×10^6 cells/well in RPMI 1640 medium supplemented with 10% FBS, 100 U/mL penicillin, 100 μg/mL streptomycin (PenStrep), 2 mM L-glutamine, and 0.05 mM 2-mercaptoethanol. THP-1 cells were treated with phorbol-12-myristate-13-acetate (PMA) (100 ng/mL) and incubated in humidified incubators containing 5% CO2 at 37° C. for 24 h. […] After incubation of 2 h, THP-1 cells were collected, nuclear protein fraction was extracted using NE-PER Nuclear and Cytoplasmic Extraction kit (Thermo Fisher Scientific). BCA assay was then used to determine protein concentration. Protein samples were loaded and run in 10% Tris-glycine SDS-PAGE, and then transferred onto a nitro-cellulose membrane (BioRad) using electroblotting. P65 (CST; 8242) (1:1000) was then used as primary antibody, and peroxidase-conjugated AffiniPure Goat Anti-Rabbit IgG (H+L) antibody (Jackson Immuno Research; 111-035-144) (1:10000) as secondary antibody, then blots were visualized using Thermo SuperSignal West Pico kit (Thermo Fisher Scientific). Lamin A/C (CST; 2032) were used as internal controls for nuclear fractions.
# Next, the inventors carried out on-target validation for CU-CPT9a. […] By contrast, the expression of TRIF and IRF3 (cytoplasmic and nuclear) were only responsive to TLR4 and TLR3, independent of TLR8.
smiles,measurement,setting,value
"COc1ccc2c(-c3ccc(O)c(C)c3)ccnc2c1 [Compound 11a, 2-Methyl-4-(7-methoxyl-4-quinolinyl)-phenol]",nuclear NF-κB,500 nM,significant reduction
same,"R848-induced elevation of downstream protein levels (p65, p-IRAK4, TRAF3)","dose-dependent, 0, 5, 50, 500 nM, 2 h",reversed
